The NIST ThermoML archive (doi:10.1016/j.tca.2004.09.020)
Values joined by “and” are separate entries in the source; they are usually repeats but may differ in a detail not shown here. Identical values can stand only once.

Assay: isobaric coefficient of expansion
Details: Gas, Pressure calorimetry

N#N [nitrogen]
Details	isobaric coefficient of expansion
302.9 K, 15 kPa	0.004 1/K
302.9 K, 30 kPa	0.0036 1/K
302.9 K, 39.9 kPa	0.00322 1/K
302.9 K, 60 kPa	0.00262 1/K
302.9 K, 70 kPa	0.00243 1/K
302.9 K, 80 kPa	0.00224 1/K
302.9 K, 89.9 kPa	0.00209 1/K
322.9 K, 13 kPa	0.0036 1/K
322.9 K, 14 kPa	0.0036 1/K
322.9 K, 15 kPa	0.0036 1/K
322.9 K, 16 kPa	0.0036 1/K
322.9 K, 18 kPa	0.0036 1/K
322.9 K, 20 kPa	0.0036 1/K
322.9 K, 30 kPa	0.00333 1/K
322.9 K, 40 kPa	0.00303 1/K
322.9 K, 60 kPa	0.0025 1/K and 0.00251 1/K
322.9 K, 80 kPa	0.00212 1/K
352.6 K, 14 kPa	0.00309 1/K
352.6 K, 30 kPa	0.00297 1/K and 0.00299 1/K
352.6 K, 40 kPa	0.0026 1/K
352.6 K, 50 kPa	0.00252 1/K
352.6 K, 60 kPa	0.00232 1/K
352.6 K, 70 kPa	0.00217 1/K
352.6 K, 80 kPa	0.002 1/K
352.6 K, 90 kPa	0.00186 1/K
422.2 K, 18 kPa	0.00244 1/K
422.2 K, 22 kPa	0.00249 1/K
422.2 K, 24 kPa	0.00248 1/K
422.2 K, 26 kPa	0.00238 1/K
422.2 K, 28 kPa	0.00236 1/K
422.2 K, 30 kPa	0.00236 1/K
422.2 K, 40 kPa	0.00225 1/K
422.2 K, 50 kPa	0.00206 1/K
422.2 K, 60 kPa	0.00194 1/K
422.2 K, 70 kPa	0.00184 1/K
422.2 K, 80 kPa	0.00177 1/K
422.2 K, 90 kPa	0.00165 1/K
